ChEMBL document CHEMBL6134905, “Double Swords in One: Novel Selective PI3K/110β PROTAC Degraders for the Treatment of Multidrug-Resistant Cancer by Activating ERS and Inhibiting P-gp” (J Med Chem, 2025)
The source made the active and inactive calls. The rule behind the calls is not given here.

Tests used:
[1] = Induction of apoptosis in human MCF7/ADM cells at 25 uM incubated for 24 hrs in presence of TUDCA by Annexin V-FITC/PI staining based flow cytometry analysis (reference value: 5.20%); type: functional
[2] = system: A549/CDDP; test: Upregulation of ATF4 expression in human A549/DDP cells at 0.25 to 25 uM incubated for 24 hrs by Western blot analysis; type: functional, cell-based; settings: dose 0.25-25 µM
[3] = system: MCF7/ADM; test: Antitumor activity against human MCF7/ADM cells xenografted in BALB/c mouse assessed as reduction in tumor volume at 50 mg/kg, ip measured every 2 days in presence of Adriamycin; type: functional, organism-based; settings: time 2.0 day
[4] = system: A549/CDDP; test: Induction of apoptosis in human A549/DDP cells assessed as increase in caspase-9 expression at 12.5 uM incubated for 24 hrs by Western blot analysis; type: functional, cell-based
[5] = system: MCF7/ADM; test: Upregulation of PERK expression in human MCF7/ADM cells at 0.25 to 25 uM incubated for 24 hrs by Western blot analysis; type: functional, cell-based; settings: dose 0.25-25 µM
[6] = molecular target: T1, von Hippel-Lindau disease tumor suppressor/Phosphatidylinositol 4,5-bisphosphate 3-kinase catalytic subunit beta isoform (Homo sapiens, UniProt P42338+P40337); test: PROTAC activity at PI3K-p110beta/VHL in human A549/DDP cells assessed as reduction in PI3K-p110beta level at 25 uM measured for 24 hrs by Western blot analysis; type: cell-based
[7] = system: MCF7/ADM; test: Upregulation of ATF6 expression in human MCF7/ADM cells at 0.25 to 25 uM incubated for 24 hrs by Western blot analysis; type: functional, cell-based; settings: dose 0.25-25 µM
[8] = system: MCF7/ADM; test: Induction of apoptosis in human MCF7/ADM cells assessed as increase in cleaved caspase-3 expression at 12.5 uM incubated for 24 hrs by Western blot analysis; type: functional, cell-based
[9] = molecular target: T1, von Hippel-Lindau disease tumor suppressor/Phosphatidylinositol 4,5-bisphosphate 3-kinase catalytic subunit beta isoform; test: PROTAC activity at PI3K-p110beta/VHL in human MCF7/ADM cells assessed as induction of PI3K-p110beta degradation at 25 uM measured for 24 hrs in presence of MG132 by Western blot analysis; type: cell-based
[10] = system: MCF7/ADM; test: Antitumor activity against human MCF7/ADM cells xenografted in BALB/c mouse assessed as downregulation of p110alpha level in tumor at 50 mg/kg, ip; type: functional, organism-based
[11] = molecular target: ATP-dependent translocase ABCB1 (Homo sapiens, UniProt P08183); test: Inhibition of P-gp in human MCF7/ADM cells assessed as increase in intracellular adriamycin accumulation at 6.25 to 25 uM incubated for 24 hrs by flow cytometry analysis; type: cell-based; settings: dose 6.25-25 µM
[12] = molecular target: T2, von Hippel-Lindau disease tumor suppressor/Phosphatidylinositol 4,5-bisphosphate 3-kinase catalytic subunit alpha isoform (Homo sapiens, UniProt P42336+P40337); test: PROTAC activity at PI3K-p110alpha/VHL in human MCF7/ADM cells assessed as reduction in PI3K-p110alpha mRNA level at 25 uM measured for 24 hrs by qRT-PCR analysis; type: cell-based
Target sequence in this assay (P40337 whole entry, looked up, canonical isoform): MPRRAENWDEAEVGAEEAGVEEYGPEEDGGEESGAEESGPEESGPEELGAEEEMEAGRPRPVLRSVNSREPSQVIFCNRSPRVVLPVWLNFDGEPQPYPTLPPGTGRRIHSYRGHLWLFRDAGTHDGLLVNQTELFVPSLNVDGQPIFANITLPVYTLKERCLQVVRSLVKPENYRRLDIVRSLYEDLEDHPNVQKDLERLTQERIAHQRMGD
Target sequence in this assay (P42336 whole entry, looked up, canonical isoform): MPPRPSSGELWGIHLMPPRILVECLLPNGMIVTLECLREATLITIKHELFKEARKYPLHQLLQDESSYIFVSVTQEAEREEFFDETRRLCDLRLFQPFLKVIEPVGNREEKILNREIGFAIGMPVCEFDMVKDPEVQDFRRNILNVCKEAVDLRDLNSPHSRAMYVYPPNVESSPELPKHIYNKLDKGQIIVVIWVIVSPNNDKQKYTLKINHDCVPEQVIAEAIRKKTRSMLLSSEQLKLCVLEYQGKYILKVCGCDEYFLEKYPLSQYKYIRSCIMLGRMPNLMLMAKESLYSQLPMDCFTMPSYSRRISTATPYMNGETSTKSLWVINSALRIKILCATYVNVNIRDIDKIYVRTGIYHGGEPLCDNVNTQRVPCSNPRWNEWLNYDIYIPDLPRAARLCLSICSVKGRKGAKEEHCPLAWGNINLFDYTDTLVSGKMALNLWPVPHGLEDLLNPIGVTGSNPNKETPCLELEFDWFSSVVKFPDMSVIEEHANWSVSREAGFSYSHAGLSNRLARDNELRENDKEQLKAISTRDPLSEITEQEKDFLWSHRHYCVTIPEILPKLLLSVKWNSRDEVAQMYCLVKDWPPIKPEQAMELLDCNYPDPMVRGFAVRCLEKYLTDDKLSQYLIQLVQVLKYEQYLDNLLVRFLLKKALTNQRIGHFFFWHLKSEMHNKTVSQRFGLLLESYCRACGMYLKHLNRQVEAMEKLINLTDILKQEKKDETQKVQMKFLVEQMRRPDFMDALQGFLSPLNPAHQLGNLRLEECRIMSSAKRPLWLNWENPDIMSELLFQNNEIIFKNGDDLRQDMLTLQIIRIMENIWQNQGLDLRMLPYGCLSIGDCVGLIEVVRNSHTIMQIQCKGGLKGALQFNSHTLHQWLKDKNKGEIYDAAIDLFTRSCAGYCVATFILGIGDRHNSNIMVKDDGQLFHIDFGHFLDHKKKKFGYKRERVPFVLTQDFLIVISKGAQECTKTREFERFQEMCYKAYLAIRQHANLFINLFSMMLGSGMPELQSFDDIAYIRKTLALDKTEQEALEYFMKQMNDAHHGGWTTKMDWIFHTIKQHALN

[13] = molecular target: T1, von Hippel-Lindau disease tumor suppressor/Phosphatidylinositol 4,5-bisphosphate 3-kinase catalytic subunit beta isoform; test: PROTAC activity at PI3K-p110beta/VHL in human A549/DDP cells assessed as reduction in PI3K-p110beta level incubated for 2 hrs by Western blot analysis; type: cell-based
[14] = molecular target: T1, von Hippel-Lindau disease tumor suppressor/Phosphatidylinositol 4,5-bisphosphate 3-kinase catalytic subunit beta isoform; test: PROTAC activity at PI3K-p110beta/VHL in human A549/DDP cells assessed as induction of PI3K-p110beta degradation at 0.04 to 50 uM by Western blot analysis; type: cell-based; settings: dose 0.04-50 µM, time 24.0 hrs
[15] = molecular target: T1, von Hippel-Lindau disease tumor suppressor/Phosphatidylinositol 4,5-bisphosphate 3-kinase catalytic subunit beta isoform; test: PROTAC activity at PI3K-p110beta/VHL in human MCF7/ADM cells assessed as reduction in PI3K-p110beta mRNA level at 25 uM measured for 24 hrs by qRT-PCR analysis; type: cell-based
[16] = molecular target: T1, von Hippel-Lindau disease tumor suppressor/Phosphatidylinositol 4,5-bisphosphate 3-kinase catalytic subunit beta isoform; test: PROTAC activity at PI3K-p110beta/VHL in human MCF7/ADM cells assessed as reduction in PI3K-p110beta level incubated for 12 to 36 hrs by Western blot analysis; type: cell-based; settings: time 12-36 hrs
[17] = system: MCF7/ADM; test: Antitumor activity against human MCF7/ADM cells xenografted in BALB/c mouse assessed as increase in PERK expression in tumor at 50 mg/kg, ip by Western blot analysis; type: functional, organism-based
[18] = system: A549/CDDP; test: Induction of apoptosis in human A549/DDP cells assessed as increase in cleaved caspase-3 expression at 12.5 uM incubated for 24 hrs by Western blot analysis; type: functional, cell-based
[19] = system: A549/CDDP; test: Induction of ROS level in human A549/DDP cells at 25 uM measured for 24 hrs by MitoSOX staining based analysis; type: functional, cell-based
[20] = molecular target: T2, von Hippel-Lindau disease tumor suppressor/Phosphatidylinositol 4,5-bisphosphate 3-kinase catalytic subunit alpha isoform; test: PROTAC activity at PI3K-p110alpha/VHL in human A549/DDP cells assessed as induction of PI3K-p110alpha degradation at 0.04 to 50 uM by Western blot analysis; type: cell-based; settings: dose 0.04-50 µM, time 24.0 hrs
Target sequence in this assay (P40337 whole entry, looked up, canonical isoform): as the sequence (P40337 whole entry, looked up, canonical isoform) above
Target sequence in this assay (P42336 whole entry, looked up, canonical isoform): as the sequence (P42336 whole entry, looked up, canonical isoform) above

[21] = system: A549/CDDP; test: Antitumor activity against human A549/DDP cells assessed as cell viability incubated for 24 hrs by MTT assay; type: functional, cell-based
[22] = system: MCF7/ADM; test: Upregulation of CHOP expression in human MCF7/ADM cells at 0.25 to 25 uM incubated for 24 hrs by Western blot analysis; type: functional, cell-based; settings: dose 0.25-25 µM
[23] = molecular target: T2, von Hippel-Lindau disease tumor suppressor/Phosphatidylinositol 4,5-bisphosphate 3-kinase catalytic subunit alpha isoform; test: PROTAC activity at PI3K-p110alpha/VHL in human MCF7/ADM cells assessed as reduction in PI3K-p110alpha level incubated for 24 hrs by Western blot analysis; type: cell-based; settings: dose 0.04-50 µM
Target sequence in this assay (P40337 whole entry, looked up, canonical isoform): as the sequence (P40337 whole entry, looked up, canonical isoform) above
Target sequence in this assay (P42336 whole entry, looked up, canonical isoform): as the sequence (P42336 whole entry, looked up, canonical isoform) above

[24] = system: MCF7/ADM; test: Upregulation of p-IRE1 expression in human MCF7/ADM cells at 0.25 to 25 uM incubated for 24 hrs by Western blot analysis; type: functional, cell-based; settings: dose 0.25-25 µM
[25] = system: MCF7/ADM; test: Upregulation of ATF4 expression in human MCF7/ADM cells at 0.25 to 25 uM incubated for 24 hrs by Western blot analysis; type: functional, cell-based; settings: dose 0.25-25 µM
[26] = system: A549/CDDP; test: Induction of oxidative stress in human A549/DDP cells at 25 uM measured for 24 hrs; type: functional, cell-based
[27] = Toxicity in BALB/c mouse xenografted with human MCF7/ADM cells assessed as body weight loss at 50 mg/kg, ip; type: organism-based; settings: in vivo
[28] = system: MCF7/ADM; test: Induction of apoptosis in human MCF7/ADM cells assessed as increase in cleaved caspase-8 expression at 12.5 uM incubated for 24 hrs by Western blot analysis; type: functional, cell-based
[29] = system: A549/CDDP; test: Induction of apoptosis in human A549/DDP cells at 6.25 uM incubated for 24 hrs by Annexin V-FITC/PI staining based flow cytometry analysis (reference value: 4.27%); type: functional
[30] = system: A549/CDDP; test: Induction of apoptosis in human A549/DDP cells at 25 uM incubated for 24 hrs in presence of TUDCA by Annexin V-FITC/PI staining based flow cytometry analysis (reference value: 4.27%); type: functional
[31] = molecular target: T2, von Hippel-Lindau disease tumor suppressor/Phosphatidylinositol 4,5-bisphosphate 3-kinase catalytic subunit alpha isoform; test: PROTAC activity at PI3K-p110alpha/VHL in human MCF7/ADM cells assessed as induction of PI3K-p110alpha degradation incubated for 24 hrs by Western blot analysis; type: cell-based
Target sequence in this assay (P42336 whole entry, canonical isoform): as the sequence (P42336 whole entry, looked up, canonical isoform) above
Target sequence in this assay (P40337 whole entry, canonical isoform): as the sequence (P40337 whole entry, looked up, canonical isoform) above

[32] = molecular target: T1, von Hippel-Lindau disease tumor suppressor/Phosphatidylinositol 4,5-bisphosphate 3-kinase catalytic subunit beta isoform; test: PROTAC activity at PI3K-p110beta/VHL in human A549/DDP cells assessed as reduction in PI3K-p110beta mRNA level at 25 uM measured for 24 hrs by qRT-PCR analysis; type: cell-based
[33] = system: A549/CDDP; test: Induction of apoptosis in human A549/DDP cells at 12.5 uM incubated for 24 hrs by Annexin V-FITC/PI staining based flow cytometry analysis (reference value: 4.27%); type: functional

T1 sequence (P40337 whole entry, looked up, canonical isoform): as above
T1 sequence (P42338 whole entry, looked up, canonical isoform): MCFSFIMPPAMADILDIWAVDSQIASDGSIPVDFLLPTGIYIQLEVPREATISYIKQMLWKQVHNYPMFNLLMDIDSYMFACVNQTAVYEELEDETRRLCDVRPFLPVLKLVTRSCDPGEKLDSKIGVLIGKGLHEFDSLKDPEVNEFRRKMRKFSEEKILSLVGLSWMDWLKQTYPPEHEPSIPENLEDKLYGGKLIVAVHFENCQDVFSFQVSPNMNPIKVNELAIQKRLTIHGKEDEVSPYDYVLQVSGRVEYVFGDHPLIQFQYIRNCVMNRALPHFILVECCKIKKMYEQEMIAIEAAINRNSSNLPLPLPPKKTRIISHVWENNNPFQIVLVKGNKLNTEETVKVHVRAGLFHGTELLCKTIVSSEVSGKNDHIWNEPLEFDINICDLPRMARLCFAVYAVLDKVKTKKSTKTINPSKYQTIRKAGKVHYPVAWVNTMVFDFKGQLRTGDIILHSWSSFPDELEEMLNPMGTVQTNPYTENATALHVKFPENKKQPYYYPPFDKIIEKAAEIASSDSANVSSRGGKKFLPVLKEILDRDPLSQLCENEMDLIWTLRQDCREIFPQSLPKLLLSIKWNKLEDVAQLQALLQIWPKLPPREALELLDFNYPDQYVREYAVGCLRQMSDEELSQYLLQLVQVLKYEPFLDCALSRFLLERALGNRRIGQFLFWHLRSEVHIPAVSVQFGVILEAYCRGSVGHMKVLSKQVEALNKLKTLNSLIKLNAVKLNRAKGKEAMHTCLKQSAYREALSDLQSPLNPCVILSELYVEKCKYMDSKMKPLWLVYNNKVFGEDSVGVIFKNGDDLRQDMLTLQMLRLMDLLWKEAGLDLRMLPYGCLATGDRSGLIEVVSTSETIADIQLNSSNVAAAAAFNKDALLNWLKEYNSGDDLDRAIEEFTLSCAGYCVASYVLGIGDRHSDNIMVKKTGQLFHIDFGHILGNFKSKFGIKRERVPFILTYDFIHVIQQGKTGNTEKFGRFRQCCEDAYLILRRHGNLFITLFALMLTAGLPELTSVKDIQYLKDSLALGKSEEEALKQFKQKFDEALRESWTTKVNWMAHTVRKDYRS
ATP-dependent translocase ABCB1, sequence (P08183 whole entry, canonical isoform): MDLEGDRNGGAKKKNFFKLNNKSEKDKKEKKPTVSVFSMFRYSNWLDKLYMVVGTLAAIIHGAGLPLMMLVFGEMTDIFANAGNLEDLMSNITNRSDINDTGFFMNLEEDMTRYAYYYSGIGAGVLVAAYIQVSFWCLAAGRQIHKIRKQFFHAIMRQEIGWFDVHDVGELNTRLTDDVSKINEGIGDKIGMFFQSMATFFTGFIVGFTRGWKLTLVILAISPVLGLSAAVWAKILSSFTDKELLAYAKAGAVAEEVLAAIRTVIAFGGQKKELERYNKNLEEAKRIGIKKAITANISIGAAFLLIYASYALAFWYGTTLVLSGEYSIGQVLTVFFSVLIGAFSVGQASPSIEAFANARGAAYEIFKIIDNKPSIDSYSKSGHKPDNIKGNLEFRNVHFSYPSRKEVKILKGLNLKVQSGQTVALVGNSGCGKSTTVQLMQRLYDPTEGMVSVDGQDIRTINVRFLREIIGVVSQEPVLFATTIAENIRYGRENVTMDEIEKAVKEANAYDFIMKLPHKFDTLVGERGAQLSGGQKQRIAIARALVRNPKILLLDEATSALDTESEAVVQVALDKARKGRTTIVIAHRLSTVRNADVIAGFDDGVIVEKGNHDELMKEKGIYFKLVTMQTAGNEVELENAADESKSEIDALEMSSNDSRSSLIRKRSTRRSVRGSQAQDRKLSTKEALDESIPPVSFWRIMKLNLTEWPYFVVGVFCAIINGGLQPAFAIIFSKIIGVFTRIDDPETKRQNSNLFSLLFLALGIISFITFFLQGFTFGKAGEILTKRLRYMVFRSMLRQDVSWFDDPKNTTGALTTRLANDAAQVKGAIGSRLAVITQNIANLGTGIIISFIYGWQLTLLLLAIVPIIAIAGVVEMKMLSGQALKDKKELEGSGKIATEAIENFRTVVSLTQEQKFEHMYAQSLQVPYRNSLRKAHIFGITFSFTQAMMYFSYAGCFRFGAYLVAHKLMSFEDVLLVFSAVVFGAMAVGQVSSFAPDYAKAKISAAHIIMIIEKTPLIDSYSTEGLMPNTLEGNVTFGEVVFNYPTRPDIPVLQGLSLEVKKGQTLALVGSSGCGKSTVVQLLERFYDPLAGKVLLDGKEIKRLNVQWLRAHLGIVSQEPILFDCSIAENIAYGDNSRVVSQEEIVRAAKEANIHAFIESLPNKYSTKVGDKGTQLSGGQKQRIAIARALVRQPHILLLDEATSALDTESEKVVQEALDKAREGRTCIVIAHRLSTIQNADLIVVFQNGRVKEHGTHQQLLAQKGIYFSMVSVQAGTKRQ

Compound	Activity [2]	Activity [4]	Activity [5]	Activity [6]	Activity [7]	Activity [8]	Activity [9]	Activity [10]	inhibition (INH) [11]	Activity [13]	Activity [14]	Activity [16]	Activity [17]	Activity [18]	Activity [19]	Activity [20]	IC50 [21] [µM]	Activity [22]	Activity [24]	Activity [25]	further results
Cc1cc(C(C)Nc2ccccc2C(=O)NCCOCCOCCC(=O)N[C@H](C(=O)N2C[C@H](O)C[C@H]2C(=O)NCc2ccc(-c3scnc3C)cc2)C(C)(C)C)c2nc(N3CCOCC3)cc(=O)n2c1 (stereo partly specified)	Active	Active	Active	Active	Active	Active	Active	Active	Active	Active	Time-dependent-effect	Active	Active	Active	Active	Time-dependent-effect	43.1	Active	Active	Active	Activity [1]: 21.59%; Activity [3]: Active; Activity [12]: Active; Activity [15]: Active; Activity [23]: Dose-dependent-effect; Activity [26]: Active; Activity [27]: Non-toxic; Activity [28]: Active
Cc1cc(C(C)Nc2ccccc2C(=O)NCCCCCCC(=O)N[C@H](C(=O)N2C[C@H](O)C[C@H]2C(=O)NCc2ccc(-c3scnc3C)cc2)C(C)(C)C)c2nc(N3CCOCC3)cc(=O)n2c1 (stereo partly specified)	Active	Active	Active	Active	Active	Active	Active	Active	Active	Active	Time-dependent-effect	Active	Active	Active	Active	Time-dependent-effect	39.2	Active	Active	Active	Activity [29]: 8.73%; Activity [30]: 22.84%; DC50 [31]: > 50 µM; Activity [32]: inactive; Activity [33]: 15.76%; Activity [26]: Active; Activity [27]: Non-toxic; Activity [28]: Active
